System: fatigue mice
Test: Weight loading swimming test of fatigue mice (Example 1)
Assay type: in vivo, ICR male mice
Conditions: for restoration of energy / strength in the state of fatigue: control group glucose 1 g/kg; for swimming time of fatigue mice: intragastric, daily dose in three times, swimming continued for three days, ribose 2.5 g/kg, caffeine 75 mg/kg, ribose 1250 mg/kg+caffeine 40 mg/kg
Method: The mice swim with the load twice every day, respectively in the morning and afternoon. The sum of the swimming times is recorded as the swimming time for one day. The average of the swimming times for the last two days is taken as a reference, and the mice are kept swimming every day until the day in which the swimming time is below 80% of the reference, and that is considered as fatigue. […] The respective agents are given by intragastric administration with a dosage of 0.2 ml/10 g, and the daily dose is given in three times. The mice are administrated with the agents 30 minutes before swimming in the morning and afternoon, respectively, and administrated again when the furs of the mice dry after swimming in the afternoon. The mice are continued to swim for three days under the prior condition as described in Section 1.2. After swimming, the respective agents are continually administered to the mice 3 times/day for 3 days, except those to be sampled immediately, then taken as materials. […] The swimming time for each group on day 0 is set for 1, the swimming time for each group on day 1, 2 and 3 is compared to that on day 0 respectively, and thereby the change rate (%) is obtained.

| SMILES | anti-fatigue effect (fatigue mice, weight loading swimming, three days) | restoration of energy / strength in the state of fatigue (fatigue mice) | swimming time of fatigue mice |
| --- | --- | --- | --- |
| Cn1c(=O)c2c(ncn2C)n(C)c1=O [caffeine] | does not produce sustained anti-fatigue effect | restore some strength in a short time but increase fatigue with the extension of time | shortened with the extension of training time |
| O=C[C@H](O)[C@H](O)[C@H](O)CO [ribose, D-ribose] | – | restore energy more quickly than the control group | increased with the extension of training time |
